Data reported in patent US20260262643A1, “HERBICIDAL BENZOXAZINES” (FMC CORPORATION, priority 2022, published 2026).

Columns and labels:
[1] = system: barnyardgrass; assay: Test C preemergence; format: in vivo, Echinochloa crusgalli; conditions: 0 to 100 scale (0 no effect, 100 complete control); for Barnyardgrass plant response rating: preemergence
Method in brief: (§1)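 Visual injury ratings on a 0–100 scale (100 = complete control) were made against untreated controls 10 days after treatment in the greenhouse. Compounds, formulated with surfactant in non-phytotoxic solvent, were sprayed on soil preemergence or onto one- to two-leaf plants 2–10 cm tall postemergence.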

[2] = system: blackgrass; assay: Test C preemergence; format: in vivo, Alopecurus myosuroides; conditions: 0 to 100 scale (0 no effect, 100 complete control); for Blackgrass plant response rating: preemergence
Method in brief: as §1

[3] = system: corn; assay: Test C preemergence; format: in vivo, Zea mays; conditions: 0 to 100 scale (0 no effect, 100 complete control); for Corn plant response rating: preemergence
Description: (§2) Seeds of plant species selected from barnyardgrass (Echinochloa crusgalli), blackgrass (Alopecurus myosuroides), corn (Zea mays), foxtail, giant (giant foxtail, Setaria faberi), green foxtail (Setaria viridis), goosegrass (Eleusine indica), kochia (Bassia scoparia), oat, wild (wild oat, Avena fatua), pigweed, palmer (palmer amaranth, palmer pigweed, Amaranthus palmeri), Pigweed, Redroot (redroot pigweed, Amaranthus retroflexus), ragweed (common ragweed, Ambrosia artemisiifolia), ryegrass, Italian ([…] ryegrass, Lolium multiflorum), soybean (Glycine max), and wheat (Triticum aestivum) were planted into a blend of loam soil and sand and treated preemergence with a directed soil spray using test chemicals formulated in a non-phytotoxic solvent mixture which included a surfactant. At the same time, plants selected from these crops and weed species and also galium (catchweed bedstraw, Galium aparine) and horseweed (Erigeron canadensis) were planted in pots containing the same blend of loam soil and sand and treated with postemergence applications of test chemicals formulated in the same manner. Plants ranged in height from 2 to 10 cm and were in the one- to two-leaf stage for the postemergence treatment. Treated plants and untreated controls were maintained in a greenhouse for 10 days, after which time all treated plants were compared to untreated controls and visually evaluated for injury. Plant response ratings, summarized in Table C, are based on a 0 to 100 scale where 0 is no effect and 100 is complete control. A dash (-) response means no test result.

[4] = system: green foxtail; assay: Test C preemergence; format: in vivo, Setaria viridis; conditions: 0 to 100 scale (0 no effect, 100 complete control); for Foxtail, Green plant response rating: preemergence
Method in brief: as §1

[5] = system: kochia; assay: Test C preemergence; format: in vivo, Bassia scoparia; conditions: 0 to 100 scale (0 no effect, 100 complete control); for Kochia plant response rating: preemergence
Method in brief: as §1

[6] = system: pigweed, palmer; assay: Test C preemergence; format: in vivo, Amaranthus palmeri; conditions: 0 to 100 scale (0 no effect, 100 complete control); for Pigweed, Palmer plant response rating: preemergence
Method in brief: as §1

[7] = system: ragweed; assay: Test C preemergence; format: in vivo, Ambrosia artemisiifolia; conditions: 0 to 100 scale (0 no effect, 100 complete control); for Ragweed plant response rating: preemergence
Method in brief: as §1

[8] = system: ryegrass, Italian; assay: Test C preemergence; format: in vivo, Lolium multiflorum; conditions: 0 to 100 scale (0 no effect, 100 complete control); for Ryegrass, Italian plant response rating: preemergence
Method in brief: as §1

[9] = system: soybean; assay: Test C preemergence; format: in vivo, Glycine max; conditions: 0 to 100 scale (0 no effect, 100 complete control); for Soybean plant response rating: preemergence
Description: as §2

[10] = system: wheat; assay: Test C preemergence; format: in vivo, Triticum aestivum; conditions: 0 to 100 scale (0 no effect, 100 complete control); for Wheat plant response rating: preemergence
Description: as §2

[11] = system: barnyardgrass; assay: Test C postemergence; format: in vivo, Echinochloa crusgalli; conditions: 10 days
Method in brief: as §1

[12] = system: blackgrass; assay: Test C postemergence; format: in vivo, Alopecurus myosuroides; conditions: 10 days
Method in brief: as §1

[13] = system: corn; assay: Test C postemergence; format: in vivo, Zea mays; conditions: 10 days
Description: as §2

[14] = system: green foxtail; assay: Test C postemergence; format: in vivo, Setaria viridis; conditions: 10 days
Method in brief: as §1

[15] = system: kochia; assay: Test C postemergence; format: in vivo, Bassia scoparia; conditions: 10 days
Method in brief: as §1

[16] = system: oat, wild; assay: Test C postemergence; format: in vivo, Avena fatua; conditions: 10 days
Description: as §2

[17] = system: pigweed, palmer; assay: Test C postemergence; format: in vivo, Amaranthus palmeri; conditions: 10 days
Method in brief: as §1

[18] = system: ragweed; assay: Test C postemergence; format: in vivo, Ambrosia artemisiifolia; conditions: 10 days
Method in brief: as §1

[19] = system: ryegrass, Italian; assay: Test C postemergence; format: in vivo, Lolium multiflorum; conditions: 10 days
Method in brief: as §1

[20] = system: soybean; assay: Test C postemergence; format: in vivo, Glycine max; conditions: 10 days
Description: as §2

[21] = system: wheat; assay: Test C postemergence; format: in vivo, Triticum aestivum; conditions: 10 days
Description: as §2

[22] = system: galium; assay: Test C postemergence; format: in vivo, Galium aparine; conditions: 10 days
Method in brief: as §1

[23] = system: horseweed; assay: Test C postemergence; format: in vivo, Erigeron canadensis; conditions: 10 days
Method in brief: as §1

[24] = system: oat, wild; assay: Test C preemergence; format: in vivo, Avena fatua; conditions: 500 g ai/ha, preemergence; 0 to 100 scale (0 no effect, 100 complete control)
Description: as §2

[25] = Preemergence, 500 g ai/ha, visual rating after 10 days
[26] = 125 g ai/ha, postemergence, 0 to 100 scale, 0 no effect, 100 complete control
[27] = Postemergence, 500 g ai/ha, visual 0 to 100 scale (0 no effect, 100 complete control)
[28] = Postemergence, 125 g ai/ha, 0 to 100 scale (0 no effect, 100 complete control)

CCc1ncn(-c2cc(OC)cc(C(=O)N3C[C@H](C)Oc4c(Cl)cccc43)c2)n1 [Compound 164]
Barnyardgrass plant response rating ([1]; 125 g ai/ha): 50
Plant response rating, Barnyardgrass [1, 25]: 100
Plant response rating, Blackgrass [2, 25]: 80
Blackgrass plant response rating ([2]; Test C, 125 g ai/ha): 50
Plant response rating, Corn [3, 25]: 30
Corn plant response rating ([3]; Test C, 125 g ai/ha): 30
Plant response rating, Foxtail, Green [4, 25]: 100
Foxtail, Green plant response rating ([4]; Test C, 125 g ai/ha): 100
Plant response rating, Kochia [5, 25]: 100
Kochia plant response rating ([5]; Test C, 125 g ai/ha): 40
Plant response rating, Pigweed, Palmer [6, 25]: 100
Pigweed, Palmer plant response rating ([6]; Test C, 125 g ai/ha): 100
Plant response rating, Ragweed [7, 25]: 60
Ragweed plant response rating ([7]; Test C, 125 g ai/ha): 70
Plant response rating, Ryegrass, Italian [8, 25]: 100
Ryegrass, Italian plant response rating ([8]; Test C, 125 g ai/ha): 90
Plant response rating, Soybean [9, 25]: 100
Soybean plant response rating ([9]; Test C, 125 g ai/ha): 90
Plant response rating, Wheat [10, 25]: 60
Wheat plant response rating ([10]; Test C, 125 g ai/ha): 20
Plant response rating, Barnyardgrass [11, 26]: 40
Plant response rating, Barnyardgrass [11, 27]: 50
Plant response rating, Blackgrass [12, 26]: 70
Plant response rating, Blackgrass [12, 27]: 90
Plant response rating, Corn [13, 26]: 30
Plant response rating, Corn [13, 27]: 90
Plant response rating, Foxtail, Green [14, 26]: 50
Plant response rating, Foxtail, Green [14, 27]: 80
Plant response rating, Kochia [15, 26]: 80
Plant response rating, Kochia [15, 27]: 90
Plant response rating, Oat, Wild [16, 26]: 30
Plant response rating, Oat, Wild [16, 27]: 50
Plant response rating, Pigweed, Palmer [17, 26]: 90
Plant response rating, Pigweed, Palmer [17, 27]: 100
Plant response rating, Ragweed [18, 26]: 50
Plant response rating, Ragweed [18, 27]: 90
Plant response rating, Ryegrass, Italian [19, 26]: 50
Plant response rating, Ryegrass, Italian [19, 27]: 90
Plant response rating, Soybean [20, 26]: 100
Plant response rating, Soybean [20, 27]: 100
Plant response rating, Wheat [21, 26]: 30
Plant response rating, Wheat [21, 27]: 30
Plant response rating, Galium [22, 26]: 100
Plant response rating, Galium [22, 27]: 100
Plant response rating, Horseweed [23, 26]: 20
Plant response rating, Horseweed [23, 27]: 50

CCOC[C@H]1CN(C(=O)c2cc(-n3cnc(C(C)C)n3)cc3c2OCO3)c2cccc(Cl)c2O1 [40 0]
Barnyardgrass plant response rating ([1]; 500 g ai/ha): 100
Blackgrass plant response rating ([2]; 500 g ai/ha): 50
Corn plant response rating ([3]; 500 g ai/ha): 0
Foxtail, Green plant response rating ([4]; 500 g ai/ha): 100
Kochia plant response rating ([5]; 500 g ai/ha): 90
Oat, Wild plant response rating [24]: 30
Pigweed, Palmer plant response rating ([6]; 500 g ai/ha): 100
Ragweed plant response rating ([7]; 500 g ai/ha): 70
Ryegrass, Italian plant response rating ([8]; 500 g ai/ha): 90
Soybean plant response rating ([9]; 500 g ai/ha): 100
Wheat plant response rating ([10]; 500 g ai/ha): 40
Plant response rating, Barnyardgrass [11, 28]: 30
Plant response rating, Blackgrass [12, 28]: 40
Plant response rating, Corn [13, 28]: 30
Plant response rating, Foxtail, Green [14, 28]: 20
Plant response rating, Kochia [15, 28]: 70
Plant response rating, Oat, Wild [16, 28]: 0
Plant response rating, Pigweed, Palmer [17, 28]: 100
Plant response rating, Ragweed [18, 28]: 60
Plant response rating, Ryegrass, Italian [19, 28]: 0
Plant response rating, Soybean [20, 28]: 20
Plant response rating, Wheat [21, 28]: 20
Plant response rating, Horseweed [23, 28]: 40
